Measurements from patent publication US11389536B2 (priority 2015, dated 2022).
Read-outs that look alike come from different tables or passages of the source.

Experiments:
[1] = test system: lungs of athymic nude mice; experiment: Lung histology for radiation-induced pneumonitis and fibrosis (H&E, Masson's trichrome); format: in vivo; settings: irradiated lungs
Protocol: For the in vivo studies, athymic nude mice are housed in the specific pathogen-free (SPF) Cancer Research Institute animal facility which exceeds the national requirements for animal care, with two conventional mouse rooms, two nude mouse rooms, and one quarantine room. Radiation was administered using an IC160 X-ray cell culture and small animal irradiation system (Kimtron Inc., Woodbury, Conn., USA) located inside the animal facility. Nine weeks post radiation, the mice were sacrificed and the lungs were harvested and processed for hematoxylin and eosin (H&E) staining. For immunohistochemistry and hematoxylin and eosin-staining procedures, one part of the tumor tissue is formalin-fixed and paraffin-embedded and another part embedded in OCT compound (Miles, Inc., Elkhart, Ind.), rapidly frozen in liquid nitrogen, and stored at […] for sectioning. Immunofluorescence microscopy is performed using a 20× objective on an epifluorescence microscope equipped with narrow bandpass excitation filters mounted in a filter wheel (Ludl Electronic Products, Hawthorne, N.Y.).
To determine the degree of radiation-induced pneumonitis, the lungs were harvested and processed for histology and H&E staining (FIGS. 23A-23D) and the amount of fibrosis and collagen deposition, indicative of chronic lung conditions, was measured using Masson's trichrome stain (FIGS. 23E-23H).

[2] = test system: non-tumor-bearing athymic nude mice
Protocol: Non-tumor-bearing athymic nude mice were exposed to fractionated doses of 30 Gy radiation (weekly administration of 5 Gy) in the presence or absence of twice weekly intravenous (i.v.) injections of Ce02 or intraperitoneal (i.p.) injections of Amifostine 30 min prior to radiation. Amifostine is a free radical scavenger. […] Treatments continued for […] for a total dose of 30 Gy radiation. The mice were killed and necropsied only when they became moribund or the experiment was terminated. The weight and mortality of each mouse was measured throughout the experiment and median and percent survival was determined, as shown in FIG. 22E.

## NCCCNCCSP(=O)(O)O [Amifostine]
[1]
  fibrosis and collagen deposition (Masson's Trichrome stain): fibrosis and collagen deposition were common
[2]; agent alone, no radiation (Amifostine 150 mg/kg i.p.)
  median survival time: 119 days
[2]; athymic nude mice
  tolerability / toxicity to mice: highly toxic to the mice
[2]; combination with radiation (5 Gy fractions, total 30 Gy), CONPs 15 nM i.v. twice weekly, Amifostine i.p. 30 min prior to radiation
  median survival time: 81 days
